Assay results reported in the NIST ThermoML archive (doi:10.1021/je400212t).
Values joined by “and” are separate entries in the source; they are usually repeats but may differ in a detail not shown here. Identical values can stand only once. Numbers after ± are expanded uncertainties.

Details: Liquid, Transpiration method

CCCCCCCCCCN [1-decanamine]
vapor or sublimation pressure (299.1 K): 0.013 ± 0.0006 kPa
vapor or sublimation pressure (300.2 K): 0.014 ± 0.0007 kPa
vapor or sublimation pressure (301.3 K): 0.0158 ± 0.0007 kPa
vapor or sublimation pressure (304 K): 0.0195 ± 0.0009 kPa
vapor or sublimation pressure (306.2 K): 0.0228 ± 0.0011 kPa
vapor or sublimation pressure (307.3 K): 0.0262 ± 0.0012 kPa
vapor or sublimation pressure (308.6 K): 0.0291 ± 0.0014 kPa
vapor or sublimation pressure (310.2 K): 0.0321 ± 0.0015 kPa
vapor or sublimation pressure (312.2 K): 0.036 ± 0.0017 kPa
vapor or sublimation pressure (313.2 K): 0.0426 ± 0.002 kPa
vapor or sublimation pressure (315.1 K): 0.046 ± 0.0021 kPa
vapor or sublimation pressure (316.2 K): 0.0512 ± 0.0024 kPa
vapor or sublimation pressure (317.2 K): 0.0553 ± 0.0026 kPa
vapor or sublimation pressure (320 K): 0.0655 ± 0.003 kPa
vapor or sublimation pressure (320.9 K): 0.0722 ± 0.0034 kPa
vapor or sublimation pressure (323.2 K): 0.0805 ± 0.0037 kPa
vapor or sublimation pressure (324.3 K): 0.0911 ± 0.0042 kPa and 0.0914 ± 0.0042 kPa
vapor or sublimation pressure (327.2 K): 0.106 ± 0.0049 kPa
vapor or sublimation pressure (330.1 K): 0.135 ± 0.0063 kPa and 0.1356 ± 0.0063 kPa
vapor or sublimation pressure (332.8 K): 0.1661 ± 0.0077 kPa and 0.1645 ± 0.0076 kPa
vapor or sublimation pressure (333.1 K): 0.1628 ± 0.0076 kPa and 0.1635 ± 0.0076 kPa
vapor or sublimation pressure (335.9 K): 0.1979 ± 0.0092 kPa and 0.2119 ± 0.0098 kPa
vapor or sublimation pressure (338.9 K): 0.2519 ± 0.012 kPa and 0.2628 ± 0.012 kPa
vapor or sublimation pressure (341.9 K): 0.3064 ± 0.014 kPa and 0.3025 ± 0.014 kPa
vapor or sublimation pressure (343 K): 0.3357 ± 0.016 kPa

CCCCCCCN [1-heptanamine]
vapor or sublimation pressure (280.2 K): 0.07823 ± 0.0036 kPa
vapor or sublimation pressure (282.2 K): 0.09451 ± 0.0044 kPa
vapor or sublimation pressure (284.2 K): 0.1088 ± 0.005 kPa
vapor or sublimation pressure (286.2 K): 0.1232 ± 0.0057 kPa
vapor or sublimation pressure (288.2 K): 0.1408 ± 0.0065 kPa
vapor or sublimation pressure (290.2 K): 0.1641 ± 0.0076 kPa
vapor or sublimation pressure (292.2 K): 0.1907 ± 0.0089 kPa
vapor or sublimation pressure (294.2 K): 0.2219 ± 0.01 kPa
vapor or sublimation pressure (296.2 K): 0.2488 ± 0.012 kPa
vapor or sublimation pressure (298.3 K): 0.2885 ± 0.013 kPa
vapor or sublimation pressure (300.3 K): 0.3288 ± 0.015 kPa
vapor or sublimation pressure (302.2 K): 0.38 ± 0.018 kPa
vapor or sublimation pressure (303.2 K): 0.4098 ± 0.019 kPa
vapor or sublimation pressure (306.2 K): 0.5027 ± 0.023 kPa

CCCCCCCCN [1-octanamine]
vapor or sublimation pressure (274.2 K): 0.0157 ± 0.0007 kPa
vapor or sublimation pressure (277.7 K): 0.0208 ± 0.001 kPa
vapor or sublimation pressure (281 K): 0.0274 ± 0.0013 kPa
vapor or sublimation pressure (283.2 K): 0.0325 ± 0.0015 kPa
vapor or sublimation pressure (283.6 K): 0.0347 ± 0.0016 kPa
vapor or sublimation pressure (285.9 K): 0.0428 ± 0.002 kPa
vapor or sublimation pressure (286.5 K): 0.0428 ± 0.002 kPa
vapor or sublimation pressure (289.2 K): 0.0517 ± 0.0024 kPa
vapor or sublimation pressure (289.6 K): 0.0545 ± 0.0025 kPa
vapor or sublimation pressure (292.4 K): 0.069 ± 0.0032 kPa and 0.0677 ± 0.0031 kPa
vapor or sublimation pressure (295.2 K): 0.084 ± 0.0039 kPa
vapor or sublimation pressure (295.3 K): 0.0856 ± 0.004 kPa and 0.0834 ± 0.0039 kPa
vapor or sublimation pressure (298.1 K): 0.1047 ± 0.0049 kPa
vapor or sublimation pressure (298.5 K): 0.1064 ± 0.0049 kPa
vapor or sublimation pressure (301.1 K): 0.1353 ± 0.0064 kPa
vapor or sublimation pressure (301.2 K): 0.1294 ± 0.006 kPa and 0.1369 ± 0.0064 kPa and 0.1341 ± 0.0062 kPa
vapor or sublimation pressure (301.3 K): 0.1312 ± 0.0061 kPa and 0.1328 ± 0.0062 kPa
vapor or sublimation pressure (304 K): 0.1653 ± 0.0077 kPa
vapor or sublimation pressure (304.1 K): 0.1667 ± 0.0077 kPa
vapor or sublimation pressure (307.1 K): 0.2113 ± 0.0098 kPa
vapor or sublimation pressure (307.3 K): 0.2102 ± 0.0098 kPa
vapor or sublimation pressure (310.2 K): 0.2494 ± 0.012 kPa
vapor or sublimation pressure (310.3 K): 0.2578 ± 0.012 kPa
vapor or sublimation pressure (312.3 K): 0.3051 ± 0.014 kPa
vapor or sublimation pressure (313 K): 0.3121 ± 0.015 kPa
vapor or sublimation pressure (313.3 K): 0.3238 ± 0.015 kPa

CC(N)c1ccccc1 (configuration not stated) [1-phenylethanamine]
vapor or sublimation pressure (283.6 K): 0.02509 ± 0.0013 kPa
vapor or sublimation pressure (287.8 K): 0.03534 ± 0.0019 kPa
vapor or sublimation pressure (291.3 K): 0.04928 ± 0.0026 kPa and 0.04951 ± 0.0027 kPa
vapor or sublimation pressure (295.3 K): 0.06595 ± 0.0035 kPa
vapor or sublimation pressure (299.2 K): 0.08866 ± 0.0047 kPa
vapor or sublimation pressure (303.1 K): 0.1183 ± 0.0063 kPa
vapor or sublimation pressure (307.1 K): 0.1552 ± 0.0083 kPa
vapor or sublimation pressure (311 K): 0.2024 ± 0.011 kPa
vapor or sublimation pressure (314.9 K): 0.2602 ± 0.014 kPa
vapor or sublimation pressure (318.9 K): 0.3391 ± 0.018 kPa
vapor or sublimation pressure (322.8 K): 0.4391 ± 0.023 kPa

NCCc1ccccc1 [2-phenylethylamine]
vapor or sublimation pressure (285.2 K): 0.01545 ± 0.00072 kPa
vapor or sublimation pressure (287.4 K): 0.01817 ± 0.00084 kPa
vapor or sublimation pressure (288.2 K): 0.01989 ± 0.00092 kPa and 0.01942 ± 0.0009 kPa
vapor or sublimation pressure (290.1 K): 0.02316 ± 0.0011 kPa
vapor or sublimation pressure (293.1 K): 0.02888 ± 0.0014 kPa
vapor or sublimation pressure (293.2 K): 0.03129 ± 0.0015 kPa
vapor or sublimation pressure (298.2 K): 0.04648 ± 0.0022 kPa and 0.04334 ± 0.002 kPa
vapor or sublimation pressure (298.3 K): 0.0443 ± 0.0021 kPa
vapor or sublimation pressure (300.1 K): 0.05196 ± 0.0024 kPa
vapor or sublimation pressure (302 K): 0.06007 ± 0.0028 kPa
vapor or sublimation pressure (303.2 K): 0.06532 ± 0.003 kPa
vapor or sublimation pressure (303.3 K): 0.06414 ± 0.003 kPa and 0.06328 ± 0.003 kPa
vapor or sublimation pressure (304.2 K): 0.06955 ± 0.0032 kPa
vapor or sublimation pressure (305.1 K): 0.07177 ± 0.0033 kPa and 0.0755 ± 0.0035 kPa
vapor or sublimation pressure (306.4 K): 0.08176 ± 0.0038 kPa
vapor or sublimation pressure (308.2 K): 0.09258 ± 0.0043 kPa and 0.0878 ± 0.0041 kPa
vapor or sublimation pressure (310.4 K): 0.1067 ± 0.005 kPa
vapor or sublimation pressure (311.2 K): 0.1201 ± 0.0056 kPa
vapor or sublimation pressure (313.2 K): 0.1331 ± 0.0062 kPa
vapor or sublimation pressure (313.4 K): 0.1311 ± 0.0061 kPa
vapor or sublimation pressure (314.2 K): 0.1374 ± 0.0064 kPa
vapor or sublimation pressure (317.2 K): 0.1818 ± 0.0084 kPa
vapor or sublimation pressure (318.2 K): 0.1891 ± 0.0088 kPa
vapor or sublimation pressure (318.4 K): 0.1878 ± 0.0087 kPa
vapor or sublimation pressure (320.2 K): 0.2187 ± 0.01 kPa
vapor or sublimation pressure (323.2 K): 0.2655 ± 0.012 kPa

NCc1ccccc1 [benzylamine]
vapor or sublimation pressure (275.5 K): 0.01437 ± 0.00067 kPa
vapor or sublimation pressure (276.7 K): 0.01472 ± 0.00068 kPa and 0.01525 ± 0.00071 kPa
vapor or sublimation pressure (278.6 K): 0.01828 ± 0.00085 kPa
vapor or sublimation pressure (279.6 K): 0.01912 ± 0.00089 kPa and 0.02004 ± 0.00093 kPa
vapor or sublimation pressure (281.5 K): 0.02307 ± 0.0011 kPa
vapor or sublimation pressure (282.3 K): 0.02534 ± 0.0012 kPa and 0.02615 ± 0.0012 kPa
vapor or sublimation pressure (284.5 K): 0.03135 ± 0.0015 kPa
vapor or sublimation pressure (285.7 K): 0.03458 ± 0.0016 kPa and 0.03341 ± 0.0015 kPa
vapor or sublimation pressure (287.6 K): 0.03874 ± 0.0018 kPa
vapor or sublimation pressure (288 K): 0.03934 ± 0.0018 kPa
vapor or sublimation pressure (290.5 K): 0.04695 ± 0.0022 kPa
vapor or sublimation pressure (291.6 K): 0.05362 ± 0.0025 kPa
vapor or sublimation pressure (293.5 K): 0.06098 ± 0.0028 kPa
vapor or sublimation pressure (294.2 K): 0.06487 ± 0.003 kPa
vapor or sublimation pressure (296.5 K): 0.07884 ± 0.0037 kPa
vapor or sublimation pressure (297.7 K): 0.08247 ± 0.0038 kPa
vapor or sublimation pressure (298.4 K): 0.0869 ± 0.004 kPa
vapor or sublimation pressure (300.3 K): 0.1015 ± 0.0047 kPa
vapor or sublimation pressure (301.3 K): 0.1137 ± 0.0053 kPa
vapor or sublimation pressure (303.3 K): 0.1283 ± 0.006 kPa
vapor or sublimation pressure (303.4 K): 0.1277 ± 0.0059 kPa and 0.1263 ± 0.0059 kPa
vapor or sublimation pressure (303.5 K): 0.126 ± 0.0059 kPa
vapor or sublimation pressure (304.3 K): 0.1363 ± 0.0063 kPa
vapor or sublimation pressure (306.1 K): 0.1469 ± 0.0068 kPa
vapor or sublimation pressure (306.3 K): 0.1514 ± 0.007 kPa
vapor or sublimation pressure (307.4 K): 0.1693 ± 0.0079 kPa
vapor or sublimation pressure (308.3 K): 0.1781 ± 0.0083 kPa
vapor or sublimation pressure (308.4 K): 0.1767 ± 0.0082 kPa
vapor or sublimation pressure (309.4 K): 0.1871 ± 0.0088 kPa
vapor or sublimation pressure (309.5 K): 0.1951 ± 0.0092 kPa
vapor or sublimation pressure (310.3 K): 0.2082 ± 0.0097 kPa
vapor or sublimation pressure (312.2 K): 0.2284 ± 0.011 kPa
vapor or sublimation pressure (312.3 K): 0.2272 ± 0.011 kPa and 0.2339 ± 0.011 kPa
vapor or sublimation pressure (313.4 K): 0.2491 ± 0.012 kPa
vapor or sublimation pressure (315.6 K): 0.3016 ± 0.014 kPa
